Values after ≈ are worked out from the molar mass of the structure shown. Active and inactive are the calls of the source. No cut-off for these calls is given here.
Tests used:
Staphylococcus aureus [1] = experiment: microbe, parasite or virus in culture; settings: ATCC BAA41, 24 h
Description: Synergistic antibacterial activity against methicillin-resistant Staphylococcus aureus ATCC BAA41 assessed as inhibition of bacterial growth incubated for 24 hrs in presence of (E)-2-(4-(dimethylamino)styryl)-1-methyl-4-(pentylamino)quinolin-1-ium iodide by checker board assay

Staphylococcus aureus [2] = experiment: microbe, parasite or virus in culture; settings: ATCC BAA41, 24 h; remark: listed apart in the source
Description: Synergistic antibacterial activity against methicillin-resistant Staphylococcus aureus ATCC BAA41 assessed as inhibition of bacterial growth incubated for 24 hrs in presence of (E)-4-(4-(dimethylamino)styryl)-1-methyl-2-(4-methylpiperidin-1-yl)quinolin-1-ium iodide by checker board assay

Staphylococcus aureus [3] = experiment: Antibacterial activity against methicillin-resistant Staphylococcus aureus ATCC BAA41 assessed as inhibition of bacterial growth incubated for 24 hrs by checker board assay; type: functional
Staphylococcus aureus [4] = experiment: microbe, parasite or virus in culture; settings: ATCC BAA41, 24 h; remark: listed apart in the source
Description: Synergistic antibacterial activity against methicillin-resistant Staphylococcus aureus ATCC BAA41 assessed as inhibition of bacterial growth incubated for 24 hrs in presence of (E)-2-(4-(dimethylamino)styryl)-1-methyl-4-(4-methylpiperidin-1-yl)quinolin-1-ium iodide by checker board assay

Staphylococcus aureus [5] = experiment: microbe, parasite or virus in culture; settings: ATCC BAA41, 24 h; remark: listed apart in the source
Description: Synergistic antibacterial activity against methicillin-resistant Staphylococcus aureus ATCC BAA41 assessed as inhibition of bacterial growth incubated for 24 hrs in presence of (E)-2-(4-(dimethylamino)styryl)-1-methyl-4-(piperidin-1-yl)quinolin-1-ium iodide by checker board assay

Staphylococcus aureus [6] = experiment: Bactericidal activity against Staphylococcus aureus ATCC 29213 assessed as inhibition of bacterial growth incubated for 24 hrs by resazurin dye based microtiter plate assay; type: functional
Erythrocyte = experiment: Hemolytic activity in Kunming mouse erythrocyte at 1 to 64 ug/ml incubated for 1 hr; type: toxicity, cell-based; settings: dose 1-64 µg/ml
[7] = biological target: T1, Cell division protein FtsZ (Staphylococcus aureus) (UniProt P0A031); experiment: Binding affinity to Staphylococcus aureus FtsZ assessed as equilibrium binding constant by isothermal titration calorimetry
T1 sequence (whole entry): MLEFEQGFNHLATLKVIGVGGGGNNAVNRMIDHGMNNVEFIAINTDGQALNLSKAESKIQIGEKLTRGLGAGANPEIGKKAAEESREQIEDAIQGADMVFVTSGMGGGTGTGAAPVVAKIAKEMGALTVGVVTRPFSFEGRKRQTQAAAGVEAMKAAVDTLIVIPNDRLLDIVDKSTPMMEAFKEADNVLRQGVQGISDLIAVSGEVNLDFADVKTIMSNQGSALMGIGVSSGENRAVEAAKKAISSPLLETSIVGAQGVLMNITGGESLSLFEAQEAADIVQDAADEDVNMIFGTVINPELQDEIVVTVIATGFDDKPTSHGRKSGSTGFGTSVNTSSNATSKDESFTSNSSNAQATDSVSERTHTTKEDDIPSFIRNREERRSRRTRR

Pseudomonas aeruginosa = experiment: Antibacterial activity against […] Pseudomonas aeruginosa ATCC 27853 assessed as inhibition of bacterial growth incubated for 20 to 24 hrs by broth micro dilution method; type: functional; settings: time 20-24 hrs
[8] = biological target: T1, Cell division protein FtsZ (Staphylococcus aureus); experiment: Induction of Staphylococcus aureus FtsZ polymerization expressed in Escherichia coli BL21 (DE3) assessed as increase in absorbance at 2 to 8 ug/ml in presence of GTP by microplate reader method; settings: dose 2-8 µg/ml, DDE = dose-dependent effect
Staphylococcus aureus [9] = experiment: Synergistic antibacterial activity against methicillin-resistant Staphylococcus aureus ATCC BAA41 assessed as inhibition of bacterial growth incubated for 24 hrs in presence of methicillin by checker board assay; type: functional
Bacillus subtilis [10] = experiment: Induction of morphological changes in Bacillus subtilis CMCC (B) 63501 assessed as elongation of bacterial cell at 0.5 times MIC for 4 hrs (reference value: 3 to 5 um) by microscopic analysis; type: functional
Staphylococcus aureus [11] = experiment: Antibacterial activity against methicillin-resistant Staphylococcus aureus ATCC 43300 assessed as inhibition of bacterial growth incubated for 20 to 24 hrs by broth micro dilution method; type: functional; settings: time 20-24 hrs
[12] = biological target: T1, Cell division protein FtsZ (Staphylococcus aureus); experiment: Binding affinity to Staphylococcus aureus FtsZ assessed as increase in alpha helix structure at 8 ug/ml incubated for 30 mins by circular dichroism method; settings: dose 8.0 µg/ml
[13] = biological target: T2, Cell division protein FtsZ (Staphylococcus aureus, UniProt P0A031); experiment: Binding affinity to Staphylococcus aureus FtsZ assessed as dissociation constant by isothermal titration calorimetry
T2 sequence (P0A031 whole entry): T1 sequence (whole entry)

Bacillus subtilis [14] = experiment: Bactericidal activity against Bacillus subtilis CMCC (B) 63501 assessed as inhibition of bacterial growth incubated for 24 hrs by resazurin dye based microtiter plate assay; type: functional
Staphylococcus aureus [15] = experiment: Antibacterial activity against Staphylococcus aureus ATCC 29213 infected in L929 cells assessed as inhibition of bacterial growth incubated for 20 to 24 hrs by broth micro dilution method; type: functional; settings: time 20-24 hrs
Enterococcus faecium [16] = experiment: Antibacterial activity against vancomycin resistant Enterococcus faecium ATCC 700221 assessed as inhibition of bacterial growth incubated for 20 to 24 hrs by broth micro dilution method; type: functional; settings: time 20-24 hrs
[17] = Cytotoxicity against human HK-2 cells incubated for 48 hrs by MTT assay; type: toxicity, cell-based
[18] = biological target: T1, Cell division protein FtsZ (Staphylococcus aureus); experiment: Binding affinity to Staphylococcus aureus FtsZ assessed as decrease in other structure at 8 ug/ml incubated for 30 mins by circular dichroism method; settings: dose 8.0 µg/ml
Escherichia coli [19] = experiment: Antibacterial activity against Escherichia coli ATCC 8739 assessed as inhibition of bacterial growth incubated for 20 to 24 hrs by broth micro dilution method; type: functional; settings: time 20-24 hrs
Staphylococcus aureus [20] = experiment: Induction of morphological changes in Staphylococcus aureus ATCC 29213 assessed as enlargement of cell size at 0.5 times MIC for 4 hrs by microscopic analysis; type: functional, organism-based
Staphylococcus aureus [21] = experiment: Antibacterial activity against Staphylococcus aureus ATCC 29213 assessed as inhibition of bacterial growth incubated for 20 to 24 hrs by broth micro dilution method; type: functional; settings: time 20-24 hrs
Escherichia coli [22] = experiment: Antibacterial activity against NDM-1 expressing Escherichia coli ATCC BAA2469 assessed as inhibition of bacterial growth incubated for 20 to 24 hrs by broth micro dilution method; type: functional; settings: time 20-24 hrs
Escherichia coli [23] = experiment: Antibacterial activity against Escherichia coli ATCC 25922 assessed as inhibition of bacterial growth incubated for 20 to 24 hrs by broth micro dilution method; type: functional; settings: time 20-24 hrs
Acinetobacter baumannii = experiment: Antibacterial activity against multi-drug resistant Acinetobacter baumannii ATCC 19606 assessed as inhibition of bacterial growth incubated for 20 to 24 hrs by broth micro dilution method; type: functional; settings: time 20-24 hrs
Bacillus subtilis [24] = experiment: Antibacterial activity against Bacillus subtilis CMCC (B) 63501 assessed as inhibition of bacterial growth incubated for 20 to 24 hrs by broth micro dilution method; type: functional; settings: time 20-24 hrs
Staphylococcus aureus [25] = experiment: Antibacterial activity against methicillin-resistant Staphylococcus aureus ATCC BAA-1720 assessed as inhibition of bacterial growth incubated for 20 to 24 hrs by broth micro dilution method; type: functional; settings: time 20-24 hrs
[26] = Ratio of MBC for bactericidal activity against Enterococcus faecium ATCC 700221 to MIC for antibacterial activity against Enterococcus faecium ATCC 700221; type: functional
[27] = Ratio of MBC for bactericidal activity against Staphylococcus aureus ATCC 43300 to MIC for antibacterial activity against Staphylococcus aureus ATCC 43300; type: functional
Enterococcus faecium [28] = experiment: Bactericidal activity against Enterococcus faecium ATCC 700221 assessed as inhibition of bacterial growth incubated for 24 hrs by resazurin dye based microtiter plate assay; type: functional
Staphylococcus aureus [29] = experiment: Bactericidal activity against Staphylococcus aureus ATCC 43300 assessed as inhibition of bacterial growth incubated for 24 hrs by resazurin dye based microtiter plate assay; type: functional
[30] = Cytotoxicity against mouse L929 cells incubated for 48 hrs by MTT assay; type: toxicity, cell-based
Bacillus subtilis [31] = experiment: Induction of drug resistance against Bacillus subtilis CMCC (B) 63501 measured after 16 passages; type: functional; settings: dose <= 64.0 µg/ml, time 30.0 min
Staphylococcus aureus [32] = experiment: Antibacterial activity against vancomycin-intermediate Staphylococcus aureus Mu50 assessed as inhibition of bacterial growth incubated for 20 to 24 hrs by broth micro dilution method; type: functional; settings: time 20-24 hrs
[33] = Ratio of MBC for bactericidal activity against Staphylococcus aureus ATCC 29213 to MIC for antibacterial activity against Staphylococcus aureus ATCC 29213; type: functional
[34] = test system: Staphylococcus epidermidis; experiment: Antibacterial activity against Staphylococcus epidermidis ATCC 12228 assessed as inhibition of bacterial growth incubated for 20 to 24 hrs by broth micro dilution method; type: functional; settings: time 20-24 hrs
Staphylococcus aureus [35] = experiment: Antibacterial activity against methicillin-resistant Staphylococcus aureus ATCC 33592 assessed as inhibition of bacterial growth incubated for 20 to 24 hrs by broth micro dilution method; type: functional; settings: time 20-24 hrs
Enterococcus faecium [36] = experiment: Antibacterial activity against vancomycin-resistant Enterococcus faecium clinical isolate assessed as inhibition of bacterial growth incubated for 20 to 24 hrs by broth micro dilution method; type: functional; settings: time 20-24 hrs
Enterococcus faecium [37] = experiment: Antibacterial activity against Enterococcus faecium ATCC 49624 assessed as inhibition of bacterial growth incubated for 20 to 24 hrs by broth micro dilution method; type: functional; settings: time 20-24 hrs
[38] = Ratio of MBC for bactericidal activity against Bacillus subtilis CMCC (B) 63501 to MIC for antibacterial activity against Bacillus subtilis CMCC (B) 63501; type: functional
[39] = biological target: T1, Cell division protein FtsZ (Staphylococcus aureus); experiment: Binding affinity to Staphylococcus aureus FtsZ assessed as decrease in random coil structure at 8 ug/ml incubated for 30 mins by circular dichroism method; settings: dose 8.0 µg/ml
[40] = biological target: T1, Cell division protein FtsZ (Staphylococcus aureus); experiment: Induction of Staphylococcus aureus FtsZ polymerization expressed in Escherichia coli BL21 (DE3) assessed as increase in absorbance at 2 to 8 ug/ml by microplate reader method; settings: dose 2-8 µg/ml
Staphylococcus aureus [41] = experiment: Antibacterial activity against Staphylococcus aureus ATCC 29213 infected in HK-2 cells assessed as inhibition of bacterial growth incubated for 20 to 24 hrs by broth micro dilution method; type: functional; settings: time 20-24 hrs
Staphylococcus aureus [42] = experiment: Antibacterial activity against methicillin-resistant Staphylococcus aureus ATCC BAA41 assessed as fractional inhibitory concentration index incubated for 24 hrs by checker board assay; type: functional
Staphylococcus aureus [43] = experiment: Induction of drug resistance against Staphylococcus aureus ATCC 29213 assessed as fold increase in MIC after 16 passage; type: functional
Klebsiella pneumoniae = experiment: Antibacterial activity against NDM-1 expressing Klebsiella pneumoniae ATCC BAA 2470 assessed as inhibition of bacterial growth incubated for 20 to 24 hrs by broth micro dilution method; type: functional; settings: time 20-24 hrs
[44] = biological target: T1, Cell division protein FtsZ (Staphylococcus aureus); experiment: Binding affinity to Staphylococcus aureus FtsZ assessed as decrease in beta turn structure at 8 ug/ml incubated for 30 mins by circular dichroism method; settings: dose 8.0 µg/ml
Enterococcus faecalis = experiment: Antibacterial activity against Enterococcus faecalis ATCC 29212 assessed as inhibition of bacterial growth incubated for 20 to 24 hrs by broth micro dilution method; type: functional; settings: time 20-24 hrs

COc1cccc(OC)c1C(=O)N[C@@H]1C(=O)N2[C@@H]1SC(C)(C)[C@@H]2C(=O)O [METHICILLIN]
MIC (Staphylococcus aureus [1]): 256 µg/mL (≈ 673 µM) | MIC (Staphylococcus aureus [2]): 64 µg/mL (≈ 168 µM) | MIC (Staphylococcus aureus [3]): 1020 µg/mL | MIC (Staphylococcus aureus [4]): 64 µg/mL (≈ 168 µM) | MIC (Staphylococcus aureus [5]): 128 µg/mL (≈ 336 µM)

CC1CCN(c2cc(/C=C/c3ccc(N(C)C)cc3)c3ccccc3[n+]2C)CC1.[I-]
MBC (Staphylococcus aureus [6]): 16 µg/mL | IC5 (Erythrocyte): 32 µg/mL | Kb [7]: 2.08 10^5/M | MIC (Pseudomonas aeruginosa): > 64 µg/mL | Activity [8]: Dde | MIC (Staphylococcus aureus [9]): 4 µg/mL | Activity (Bacillus subtilis [10]): 30 um | MIC (Staphylococcus aureus [11]): 4 µg/mL | Activity [12]: Active | Kd [13]: 3.86 µM | MBC (Bacillus subtilis [14]): 16 µg/mL | MIC (Staphylococcus aureus [15]): 2 µg/mL | MIC (Enterococcus faecium [16]): 2 µg/mL | IC50 at 48 h [17]: 8.89 µg/mL | Activity [18]: Active | MIC (Escherichia coli [19]): 64 µg/mL | Activity (Staphylococcus aureus [20]): Active | MIC (Staphylococcus aureus [21]): 2 µg/mL | MIC (Escherichia coli [22]): 64 µg/mL | MIC (Escherichia coli [23]): 32 µg/mL | MIC (Acinetobacter baumannii): > 64 µg/mL | MIC (Bacillus subtilis [24]): 8 µg/mL | MIC (Staphylococcus aureus [25]): 4 µg/mL | Ratio [26]: 4 | Ratio [27]: >4 | MBC (Enterococcus faecium [28]): 8 µg/mL | MBC (Staphylococcus aureus [29]): 32 µg/mL | IC50 at 48 h [30]: 11.3 µg/mL | Activity (Bacillus subtilis [31]): Active | MIC (Staphylococcus aureus [32]): 4 µg/mL | MIC (Staphylococcus aureus [3]): 16 µg/mL | Ratio [33]: >4 | MIC [34]: 1 µg/mL | MIC (Staphylococcus aureus [35]): 4 µg/mL | MIC (Enterococcus faecium [36]): 16 µg/mL | MIC (Enterococcus faecium [37]): 16 µg/mL | Ratio [38]: 2 | Activity [39]: Active | Activity [40]: Active | MIC (Staphylococcus aureus [41]): 2 µg/mL | fractional inhibitory concentration index (FICI) (Staphylococcus aureus [42]): 0.3125 | fold change (FC) (Staphylococcus aureus [43]): 8 | MIC (Klebsiella pneumoniae): > 64 µg/mL | Activity [44]: Active | MIC (Enterococcus faecalis): 16 µg/mL
